{"source": "patent US8324237B2", "about": "“Methods for the treatment and prevention of inflammatory diseases” (priority 2005, dated 2012)", "key": {"human sphingosine kinase": {"tested_on": "human sphingosine kinase", "assay": "Screening assay for inhibitors of SK", "type": "biochemical", "conditions": "library screen", "text": "An assay for screening for inhibitors of SK has been established (French et al., Cancer Res 63: 5962 (2003)). […] Representative active compounds from four chemotypes of SK inhibitors, designated herein as Compounds I-IV, are shown in FIG. 1."}, "[1]": {"tested_on": "endogenous SK in rat IEC6 cells", "assay": "Cell-based [3H]sphingosine to [3H]S1P assay of endogenous SK activity, rat IEC6 cells", "conditions": "FIG. 2A", "protocol": "(§1) FIG. 2. […] Values represent the mean±sd SK activity in triplicate samples in a typical experiment. A cell-based assay in which the phosphorylation of exogenously added [^3H]sphingosine to [^3H]S1P by endogenous SK can be quantified (French et al., Cancer Res 63: 5962 (2003)) was used to evaluate the effects of test compounds on the activity of SK in intact cells. In this assay, cells are incubated with [^3H]sphingosine for an appropriate period of time, and then [^3H]sphingosine and [^3H]S1P (formed by endogenous SK activity) are separated by extraction and levels of both species are determined by scintillation counting. […] For example, human umbilical vein endothelial cells (HUVECs) are commonly used as a model of human vasculature. Additionally, rat IEC6 cells are commonly used as a model of intestinal epithelial cells."}, "[2]": {"tested_on": "endogenous SK in human umbilical vein endothelial cells (HUVECs)", "assay": "Cell-based [3H]sphingosine to [3H]S1P assay of endogenous SK activity, HUVECs", "conditions": "for cellular levels of [3H]S1P: 24 hours treatment, FIG. 3", "protocol": "as §1, with “typical experiment. FIG. 3. […] HUVECs were treated with the indicated concentrations of Compound I, II or V for 24 hours. SK activity was measured by adding [^3H]sphingosine and determining its conversion to [3H]S1P. Values represent the mean±SD of duplicate samples. A cell-based” for “typical experiment. A cell-based”, “epithelial cells. […] Specifically, HUVECs, human chondrocytes (HC), and human synovial cells from a patient with RA (HFLS-RA) were examined.” for “epithelial cells.”"}, "NFκB": {"tested_on": "NFκB", "assay": "TNFα-induced NFκB luciferase reporter assay in fibroblasts", "type": "cell-based", "conditions": "TNFα for 6 hours, FIG. 4", "protocol": "FIG. 4. Inhibition of TNFα-induced activation of NFκB by ABC294640. Fibroblasts transfected with a TNFα-responsive promoter linked to luciferase were treated with the indicated concentrations of ABC294640 and then treated with TNFα for 6 hours. The amount of luciferase expressed by the cells was then measured by luminescence. Values represent the mean±sd luciferase activity in triplicate samples in a typical experiment."}, "[3]": {"tested_on": "ICAM-1 and VCAM-1 in human endothelial cells", "assay": "TNFα-induced adhesion molecule expression (Western analysis)", "type": "cell-based", "conditions": "TNFα 100 ng/mL, 6 hours", "protocol": "Like endothelial cells in the body, HUVECs will proliferate in response to several growth factors, and will respond to inflammatory cytokines such as TNFα and IL-1β. Western analyses were conducted with human endothelial cells to evaluate the effects of the SK inhibitors on signaling proteins known to be regulated by TNFα. […] Cell lysates from treated cells were assayed for the adhesion molecules ICAM-1 and VCAM-1. TNFα caused marked increases in the expression levels of adhesion proteins involved in leukocyte recruitment, including ICAM-1 and VCAM-1."}, "[4]": {"tested_on": "Cox-2 activity (PGE2 production) in IEC6 rat intestinal epithelial cells", "assay": "TNFα-induced Cox-2 activity (PGE2 ELISA), IEC6 cells", "type": "cell-based", "conditions": "10 μg/mL compound, 100 ng TNFα/mL, 18 hours"}, "[5]": {"tested_on": "Cox-2 activity (PGE2 production) in human endothelial cells", "assay": "TNFα-induced Cox-2 activity (PGE2 ELISA), human endothelial cells", "type": "cell-based", "conditions": "10 μg/mL compound, 100 ng TNFα/mL, 18 hours"}, "[6]": {"tested_on": "male C57BL/6 mice, DSS-colitis", "assay": "Acute DSS-colitis model of IBD", "type": "in vivo", "conditions": "2% DSS, 50 mg/kg oral daily; for Disease Activity Index (DAI): Days 4-6"}, "[7]": {"tested_on": "mice, chronic DSS-colitis", "assay": "Chronic (35-day) DSS-colitis model of IBD", "type": "in vivo", "conditions": "for colon length: Day 35, 50 mg/kg oral daily for 7 days, DSS alone 4.9±0.2, water 7.8±0.3; for serum level of IL-6: at time of sacrifice; for increase in DAI: third DSS exposure, 50 mg/kg oral daily Day 28-35, P<0.001 on Day 35; for colonic levels of pro-inflammatory cytokines TNFα, IL-1β, IFN-γ and IL-6: treated during the final DSS cycle, 50 mg/kg oral"}, "[8]": {"tested_on": "female DBA/1 mice, Collagen-Induced Arthritis", "assay": "Collagen-Induced Arthritis (CIA) model", "type": "in vivo", "conditions": "Day 12; ABC294640 100 mg/kg, ABC747080 50 mg/kg oral"}, "[9]": {"tested_on": "male Lewis rats, adjuvant-induced arthritis", "assay": "Adjuvant-induced arthritis model", "type": "in vivo", "conditions": "5, 35, 100 mg/kg oral daily, 10 days", "protocol": "FIG. 18. Effects of ABC294640 on disease progression in the adjuvant-induced arthritis model in rats. Male Lewis rats were injected subcutaneously with Mycobacterium butyricum, and symptoms of immune reactivity were present after 2 weeks. Responsive rats were randomized into treatment groups (n=8 per group), and received oral daily doses of: solvent alone (0.375% Tween-80); 100 mg/kg ABC294640; 35 mg/kg ABC294640; or 5 mg/kg ABC294640, or intraperitoneal injections of indomethacin (5 mg/kg) every other day. The severity of disease in each animal was quantified by measurement of the hind paw thickness. Panel A. Time course of hind paw arthritic response. Panel B. Final day (Day 10) hind paw thickness measurements. Panel C. Change in paw thickness of respective group versus non-arthritic rats (naive) at Day 10. *, p<0.05; ***, p<0.001 versus solvent alone group.\nAdjuvant-induced arthritis is another widely used assay that recapitulates many features of human rheumatoid arthritis, and so is useful in the evaluation of new drug candidates. Age- and weight-matched male Lewis rats (150-170 g) were injected subcutaneously in the tail with 1 mg of Mycobacterium butyricum (Difco, killed dried) suspended in 0.1 ml of light mineral oil. Symptoms of immune reactivity were present after 2 weeks. […] The severity of disease in each animal was quantified by measurement of the hind paw thickness. […]"}, "[10]": {"tested_on": "female Swiss-Webster mice", "conditions": "mouse, in vivo", "description": "The compounds are soluble to at least 15 mg/ml in 50% dimethylsulfoxide: 50% phosphate-buffered saline (DMSO:PBS) for intraperitoneal (IP) administration or Polyethylene glycol-400 (PEG400) for oral dosing."}, "physchem": {"assay": "physchem", "conditions": "aqueous with cosolvent or surfactant or cyclodextrin"}, "[11]": {"tested_on": "endogenous SK in human chondrocytes (HC)", "assay": "Cell-based S1P formation assay, human chondrocytes", "conditions": "HCs; read-out: drug concentration that decreases S1P formation by 50%", "protocol": "(§2) A cell-based assay in which the phosphorylation of exogenously added [^3H]sphingosine to [^3H]S1P by endogenous SK can be quantified (French et al., Cancer Res 63: 5962 (2003)) was used to evaluate the effects of test compounds on the activity of SK in intact cells. In this assay, cells are incubated with [^3H]sphingosine for an appropriate period of time, and then [^3H]sphingosine and [^3H]S1P (formed by endogenous SK activity) are separated by extraction and levels of both species are determined by scintillation counting. We have used a number of cell lines in this assay to confirm that the SK inhibitors are active in multiple intact cell systems. For example, human umbilical vein endothelial cells (HUVECs) are commonly used as a model of human vasculature. Additionally, rat IEC6 cells are commonly used as a model of intestinal epithelial cells.\n(§3) Specifically, HUVECs, human chondrocytes (HC), and human synovial cells from a patient with RA (HFLS-RA) were examined."}, "[12]": {"tested_on": "endogenous SK in human synovial cells from a patient with RA (HFLS-RA)", "assay": "Cell-based S1P formation assay, HFLS-RA cells", "conditions": "read-out: drug concentration that decreases S1P formation by 50%", "protocol": "as §2, §3"}, "[13]": {"tested_on": "HL-60 (human promyelocytic leukemia) cells", "assay": "TNFα-induced HL-60 cell proliferation", "type": "cell-based", "conditions": "25 ng TNFα/ml, 72 hours", "protocol": "FIG. 6. Inhibition of TNFα-induced HL-60 cell proliferation by SK inhibitors. HL-60 cells were serum-starved for 18 hours and then left untreated (▴) or treated with 25 ng of TNFα/ml (▾) in the presence of the indicated concentrations of Compound I, II or V. After 72 hours, the number of cells in each treatment group was quantified.\nAs discussed above, aberrant activation of leukocytes is a central feature of many inflammatory diseases. Because of the roles of S1P in promoting leukocyte proliferation, we examined the effects of several SK inhibitors on the proliferation of HL-60 (human promyelocytic leukemia) cells. […] Compound I was particularly effective, completely blocking the effects of TNFα at concentrations of 0.2 μM or greater."}}}
{"smiles": "O=C(NCc1ccncc1)C12CC3CC(C1)CC(c1ccc(Cl)cc1)(C3)C2", "note": "[ABC294640]", "values": [{"measurement": "inhibition of SK", "setting": "human sphingosine kinase", "result": "inhibit SK"}, {"measurement": "SK activity ([3H]S1P formation)", "setting": "[1]", "result": "dose-dependent suppression of SK activity"}, {"measurement": "SK activity ([3H]S1P formation)", "setting": "[2]; human endothelial cells, FIG. 2B", "result": "dose-dependent suppression of SK activity"}, {"measurement": "activation of NFκB by TNFα (luciferase)", "setting": "NFκB", "result": "dose-dependently suppressed"}, {"measurement": "TNFα induction of ICAM-1 and VCAM-1", "setting": "[3]; 25 μM compound", "result": "completely abrogated"}, {"measurement": "TNFα-induced expression of ICAM-1 and VCAM-1", "setting": "[3]", "result": "inhibited"}, {"measurement": "induction of Cox-2 activity by TNFα (PGE2 production)", "setting": "[4]", "result": "strongly suppressed"}, {"measurement": "induction of Cox-2 activity by TNFα (PGE2 production)", "setting": "[5]", "result": "strongly suppressed"}, {"measurement": "colon length", "setting": "[6]; Day 6", "result": "colons of intermediate length"}, {"measurement": "colonic S1P levels (LC-MS/MS)", "setting": "[6]; Day 6", "result": "markedly lower levels of colonic S1P"}, {"measurement": "histological examination of colon sections", "setting": "[6]; Day 6", "result": "no or mild crypt damage, no or low levels of inflammatory cell infiltration and no edema in the submucosa"}, {"measurement": "increase in colonic myeloperoxidase (MPO) activity", "setting": "[6]; Day 6", "result": "markedly attenuated"}, {"measurement": "Disease Activity Index (DAI)", "setting": "[6]", "result": "reduced the intensity of the IBD manifestations"}, {"measurement": "SK expression in the colon (immunohistochemistry)", "setting": "[7]; DSS treated mice", "result": "clearly reduced"}, {"measurement": "colon length", "setting": "[7]", "result": "6.2±0.2", "unit": "cm"}, {"measurement": "serum level of IL-6", "setting": "[7]", "result": "reduced the serum level of IL-6"}, {"measurement": "colonic S1P levels", "setting": "[7]; oral 50 mg/kg daily, 7 days prior to sacrifice", "result": "significant reductions of S1P levels"}, {"measurement": "increase in DAI", "setting": "[7]", "result": "significantly suppressed the increase in DAI"}, {"measurement": "colonic levels of pro-inflammatory cytokines TNFα, IL-1β, IFN-γ and IL-6", "setting": "[7]", "result": "reduced levels of the pro-inflammatory cytokines"}, {"measurement": "histologic damage of tibiotarsal joints", "setting": "[8]", "result": "significantly reduced histologic damage"}, {"measurement": "arthritic response (paw thickness)", "setting": "[9]", "result": "inhibited this arthritic response in a dose-dependent manner"}, {"measurement": "dose with no immediate or delayed toxicity", "setting": "[10]; ip", "result": "at least 50 mg/kg"}, {"measurement": "dose without noticeable toxicity", "setting": "[10]; po", "result": "at least 100 mg/kg"}, {"measurement": "solubility", "setting": "physchem", "result": "≥ 15", "unit": "mg/mL"}]}
{"smiles": "O=C(O)c1cc(/N=N/c2ccc(O)c(C(=O)O)c2)ccc1O", "note": "[Dipentum, reference compound]", "values": [{"measurement": "colon Histology Score", "setting": "[6]; Day 6", "result": "consistently lower than the DSS-alone animals"}, {"measurement": "colon length", "setting": "[6]; Day 6", "result": "colons of intermediate length"}, {"measurement": "elevations of colonic pro-inflammatory proteins IFN-γ, IL-1β, IL-6 and TNFα", "setting": "[6]; Day 6", "result": "attenuated"}, {"measurement": "increase in colonic myeloperoxidase (MPO) activity", "setting": "[6]; Day 6", "result": "markedly attenuated"}, {"measurement": "Disease Activity Index (DAI)", "setting": "[6]", "result": "reduced the intensity of the IBD manifestations"}, {"measurement": "colon length", "setting": "[7]", "result": "6.1±0.2", "unit": "cm"}, {"measurement": "serum level of IL-6", "setting": "[7]", "result": "reduced the serum level of IL-6"}, {"measurement": "increase in DAI", "setting": "[7]", "result": "significantly suppressed the increase in DAI"}, {"measurement": "colonic levels of pro-inflammatory cytokines TNFα, IL-1β, IFN-γ and IL-6", "setting": "[7]", "result": "cytokine profiles equivalent to the DSS-alone group"}]}
{"smiles": "Oc1ccc(Nc2nc(-c3ccc(Cl)cc3)cs2)cc1", "note": "[Compound II]", "values": [{"measurement": "cellular levels of [3H]S1P", "setting": "[2]; HUVECs", "result": "dose-dependent reductions in the cellular levels of S1P"}, {"measurement": "IC50", "setting": "[2]; HUVECs, read-out: drug concentration that decreases S1P formation by 50%", "result": 200, "unit": "nM"}, {"measurement": "IC50", "setting": "[11]", "result": 360, "unit": "nM"}, {"measurement": "IC50", "setting": "[12]", "result": 190, "unit": "nM"}, {"measurement": "HL-60 cell proliferation of TNFα-stimulated cells", "setting": "[13]", "result": "dose-dependent reductions in HL-60 cell proliferation"}]}
{"smiles": "O=C1C(=Cc2ccc(O)c(O)c2)Oc2ccccc21", "note": "[V]", "values": [{"measurement": "cellular levels of [3H]S1P", "setting": "[2]; HUVECs", "result": "dose-dependent reductions in the cellular levels of S1P"}, {"measurement": "HL-60 cell proliferation of TNFα-stimulated cells", "setting": "[13]", "result": "dose-dependent reductions in HL-60 cell proliferation"}]}
